Results from patent US20240368131A1, “OXOINDOLINYL AMIDE DERIVATIVES FOR INHIBITING NLRP3 AND USES THEREOF” (VENTUS THERAPEUTICS U.S. INC., priority 2022, published 2024).

Experiments:
Format in all cases: cell-based
mouse NLRP3 = biological target: T1, mouse NLRP3 (Mus musculus, UniProt Q8R4B8); experiment: Mouse Whole Blood (mWB) NLRP3 Assay (IL-1β MSD); settings: CD1 mouse whole blood, LPS 1 μg/mL 5 h, ATP 5 mM; class symbols
T1 construct: Blood was drawn from female CD1 mice (9 to 10 weeks) by cardiac puncture; from tissue; host or cells: whole blood of female CD1 mice, LPS-primed, ATP-stimulated
Method: Reagents: The following reagents were used: blood collection tubes (Heparin); U-bottom 96-well tissue culture (Falcon 353077); HBSS for LPS, ATP and compound dilutions (Gibco 24020-117); and LPS, E. coli serotype 026:B6 (Sigma L-2654).
Mouse IL-1b MSD assay: Blood was drawn from female CD1 mice (9 to 10 weeks) by cardiac puncture. Blood was plated (135 μL) per well in 96-well U-bottom plates. 7.5 μL of 20× LPS (20 μg/mL, final concentration of 1 μg/mL) was added and mixed by gentle pipetting, and the mixture was incubated in a TC incubator for five hours. 7.5 μL of 20× compound or vehicle per well was added and mixed by gentle pipetting. Compounds were diluted 1/50 in HBSS to prepare a 20× dilution curve in 2% DMSO. The mixture was incubated for 30 minutes in a TC incubator with shaking (450 rpm). 5 μl of 31× ATP (155 mM, final concentration of 5 mM) was added and mixed by gentle pipetting. The mixture was incubated in a TC incubator for 30 minutes with shaking (450 rpm). The plate was centrifuged for 10 minutes at 800×g and ˜70 μL of plasma was removed. Plasma was frozen if required. Mouse IL-1b was analyzed with IL-1b MSD assay (K152TUK). […]
mWB IL-1β Assay: A represents an IC50 value <0.3 μM; B represents an IC50 value ≥0.3 μM and <0.5 μM; C represents an IC50 value ≥0.5 μM and <1.0 μM; D represents an IC50 value ≥1.0 μM.

human NLRP3 [1] = biological target: T2, human NLRP3 (Homo sapiens, UniProt Q96P20); experiment: Human PBMC NLRP3 Assay (IL-1β release); design: Human PBMCs (Normal): iXCells Cat #10HU-003; host or cells: human PBMCs (normal donors), LPS-primed, nigericin-stimulated; settings: human PBMCs
Method: Reagents: Human PBMCs (Normal): iXCells Cat #10HU-003; RPMI 1640 medium (ATCC modification): ThermoFisher Cat #A1049101 (Complete Media: 10% FBS, 1% Pen/Strep; Assay Media: 1% Pen/Strep; 75 cm^2 cell culture flask: Corning Cat #430641U; 96-well cell culture plates: VWR Cat #10062-900; LPS (E. coli 026:B6): Sigma Cat #L2654, stock 5 mg/mL in PBS; Nigericin sodium salt: Sigma Cat #N7143, stock 5 mg/mL (6.7 mM) in ethanol.
Cryopreserved PBMCs (10×10^6 cells/vial) were rapidly thawed in a 37° C. water bath for 2 min and transferred in 10 mL Complete Media. Cells were then centrifuged at 1200 RPM for 5 min, resuspended in 40 mL of Complete Media, transferred in a 75 cm^2 cell culture flask and incubated overnight at 37° C. with 5% CO2. The next day, PBMCs were centrifuged, resuspended in 30 mL Assay Media (˜3.3×10^5 cells/mL) and distributed at 100 μL/well in a 96-well cell culture plate. 50 μl of Assay Media containing 300 ng/ml of LPS was then added to each well except for the untreated control wells (50 μl Assay Media without LPS). Cells were then primed with LPS for 4 h at 37° C. with 5% CO2. A concentration response curve (CRC) was prepared of 500× test compound in 100% dimethyl sulfoxide (DMSO). The CRC was then diluted 1:25 in Assay Media and then further diluted 1:5 in Assay Media resulting in a final 4× CRC in 0.8% DMSO/Assay Media. 50 μL/well of 4× test compound CRC or vehicle (0.8% DMSO/Assay Media) was then transferred into each well and subsequently incubated for 30 min at 37° C. with 5% CO2. Cells were stimulated by adding 4 μL of 500 μM Nigericin, for 1 h at 37° C. with 5% CO2 Plates were then centrifuged at 1200 RPM for 5 min and 100 μl of the media was transferred to a clean 96-well storage plate and stored at −80° C. until analyzed. Cytokine measurements were performed using the mesoscale platform. Compounds were added 30 minutes before priming the cells with LPS when TNFα was required to be quantified in the cytokine panel to confirm selectivity.
Human PBMC NLRP3 Assay: A represents an IC50 value <0.3 μM; B represents an IC50 value ≥0.3 μM and <0.5 μM; C represents an IC50 value ≥0.5 μM and <1.0 μM; D represents an IC50 value >1.0 μM and <10 μM; E represents an IC50 value >10 μM.

human NLRP3 [2] = biological target: T2, human NLRP3; experiment: Human Whole Blood (hWB) NLRP3 Assay (IL-1β MSD); settings: LPS 1 μg/ml 4.5 h, ATP 30 min, class symbols
Method: Human whole blood was drawn from healthy volunteers after obtaining written informed consent. Heparin lithium coated tubes were used to collect blood from volunteers. Blood samples were distributed on 96 well plates using 90 μl per well. Priming was performed by adding 5 μl of LPS (O26:B6; Sigma L-2654) at a final concentration of 1 μg/ml for 4.5 hours in a humidified incubator with 37° C., 5% CO2. Thirty minutes prior to NLRP3 activation, 5 μl of a 20× compound solution or vehicle (2% DMSO) was added to each well and plates were incubated on a shaker (450 rpm) in a humidified incubator with 37° C., 5% CO2. Activation was then performed by adding 3.3 μl of a 31× ATP solution per well. At the end of the 30 minutes stimulation, the plates were centrifuged (800 g, 10 min, room temperature) and the plasma from each well was frozen at −80° C. IL-1β levels in the supernatant were analyzed using a mesoscale discovery assay (MSD K151TUK) according to the manufacturers' instructions.
hWB IL-1β Assay: A represents an IC50 value <0.3 μM; B represents an IC50 value ≥0.3 μM and <0.5 μM; C represents an IC50 value ≥0.5 μM and <1.0 μM; D represents an IC50 value >1.0 μM.

[3] = LPS priming 4 h, nigericin stimulation 1 h, class symbols
[4] = LPS priming, nigericin stimulation, numeric values of Tables C1-C4

T2 sequence (Q96P20 whole entry): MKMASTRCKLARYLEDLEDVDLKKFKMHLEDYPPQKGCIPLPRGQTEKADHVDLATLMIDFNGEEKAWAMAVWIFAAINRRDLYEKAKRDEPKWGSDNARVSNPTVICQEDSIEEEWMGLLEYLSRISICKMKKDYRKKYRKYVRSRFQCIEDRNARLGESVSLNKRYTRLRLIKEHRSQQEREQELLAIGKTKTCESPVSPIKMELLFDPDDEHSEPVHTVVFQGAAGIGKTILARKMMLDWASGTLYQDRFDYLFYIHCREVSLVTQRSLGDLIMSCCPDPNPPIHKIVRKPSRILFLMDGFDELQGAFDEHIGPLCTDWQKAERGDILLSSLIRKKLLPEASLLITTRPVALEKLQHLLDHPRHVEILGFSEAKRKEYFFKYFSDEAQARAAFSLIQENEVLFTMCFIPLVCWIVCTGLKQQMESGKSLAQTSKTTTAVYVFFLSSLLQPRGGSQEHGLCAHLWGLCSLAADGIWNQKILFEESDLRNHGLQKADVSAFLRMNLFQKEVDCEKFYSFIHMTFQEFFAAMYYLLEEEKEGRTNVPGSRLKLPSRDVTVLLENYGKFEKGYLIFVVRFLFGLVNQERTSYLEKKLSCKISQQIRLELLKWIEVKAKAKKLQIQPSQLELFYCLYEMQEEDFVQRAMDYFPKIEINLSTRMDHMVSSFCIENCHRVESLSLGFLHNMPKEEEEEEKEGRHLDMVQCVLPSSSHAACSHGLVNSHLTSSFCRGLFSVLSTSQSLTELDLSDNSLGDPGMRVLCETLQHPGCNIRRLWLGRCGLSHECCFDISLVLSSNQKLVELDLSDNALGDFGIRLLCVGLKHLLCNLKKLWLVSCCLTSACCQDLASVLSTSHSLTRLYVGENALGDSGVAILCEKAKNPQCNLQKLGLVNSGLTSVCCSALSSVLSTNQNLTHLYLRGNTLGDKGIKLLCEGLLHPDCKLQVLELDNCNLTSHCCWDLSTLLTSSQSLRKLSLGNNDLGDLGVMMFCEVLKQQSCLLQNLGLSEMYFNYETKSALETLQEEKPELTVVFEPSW
T1 sequence (Q8R4B8 whole entry): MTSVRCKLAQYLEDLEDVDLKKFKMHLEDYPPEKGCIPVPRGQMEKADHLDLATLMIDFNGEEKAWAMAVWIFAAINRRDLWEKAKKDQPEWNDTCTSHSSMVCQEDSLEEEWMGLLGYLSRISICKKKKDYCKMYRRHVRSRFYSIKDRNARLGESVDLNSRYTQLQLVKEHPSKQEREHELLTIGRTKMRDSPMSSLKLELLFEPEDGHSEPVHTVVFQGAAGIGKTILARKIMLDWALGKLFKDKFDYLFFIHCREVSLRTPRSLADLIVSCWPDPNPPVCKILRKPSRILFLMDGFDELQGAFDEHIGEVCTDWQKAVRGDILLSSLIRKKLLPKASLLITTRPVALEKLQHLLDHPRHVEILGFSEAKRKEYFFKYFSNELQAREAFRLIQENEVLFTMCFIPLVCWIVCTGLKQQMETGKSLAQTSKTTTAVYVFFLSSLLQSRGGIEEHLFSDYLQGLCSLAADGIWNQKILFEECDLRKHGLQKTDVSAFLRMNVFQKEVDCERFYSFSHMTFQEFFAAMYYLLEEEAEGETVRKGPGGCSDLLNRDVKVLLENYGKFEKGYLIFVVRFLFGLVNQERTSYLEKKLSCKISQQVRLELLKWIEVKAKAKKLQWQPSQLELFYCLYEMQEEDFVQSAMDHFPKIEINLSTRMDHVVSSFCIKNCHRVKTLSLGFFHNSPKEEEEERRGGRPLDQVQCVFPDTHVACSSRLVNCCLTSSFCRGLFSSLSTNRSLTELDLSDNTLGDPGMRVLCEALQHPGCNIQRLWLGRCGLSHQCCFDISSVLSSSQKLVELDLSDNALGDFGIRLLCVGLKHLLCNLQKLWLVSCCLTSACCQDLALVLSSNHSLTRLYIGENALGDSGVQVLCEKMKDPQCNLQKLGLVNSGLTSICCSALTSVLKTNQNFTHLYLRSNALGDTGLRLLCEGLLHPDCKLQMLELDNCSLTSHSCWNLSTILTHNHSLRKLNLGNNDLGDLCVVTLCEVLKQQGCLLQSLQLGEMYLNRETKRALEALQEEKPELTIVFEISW

IC50 (mouse NLRP3) [µM]	IC50 (human NLRP3 [1]; [3]) [µM]	IC50 (human NLRP3 [2]) [µM]	IC50 (human NLRP3 [1]; [4]) [µM]	Structure (SMILES)
< 0.3	< 0.3	> 1		CC1(C)C(=O)N(CC(=O)NCCCc2nnn[nH]2)c2ccc(Br)cc21 [Compound 1, N-(3-(1H-tetrazol-5-yl)propyl)-2-(5-bromo-3,3-dimethyl-2-oxoindolin-1-yl)acetamide]
< 0.3	< 0.3	> 1	0.15	CC1(C)C(=O)N(CC(=O)NCCCC(=O)O)c2ccc(Br)cc21 [Compound 2, 4-(2-(5-bromo-3,3-dimethyl-2-oxoindolin-1-yl)acetamido)butanoic acid]
0.5 to 1	< 0.3	0.5 to 1		CC1(C)C(=O)N(CC(=O)NCCCC(=O)O)c2c(O)cc(Br)cc21 [Compound 16, 4-(2-(5-bromo-7-hydroxy-3,3-dimethyl-2-oxoindolin-1-yl)acetamido)butanoic acid]
< 0.3	< 0.3	0.5 to 1	0.046	CC1(C)C(=O)N(CC(=O)NCCCC(=O)O)c2ccc(C3CC3)c(F)c21 [Compound 56, 4-(2-(5-cyclopropyl-4-fluoro-3,3-dimethyl-2-oxoindolin-1-yl)acetamido)butanoic acid]
< 0.3	< 0.3	0.3 to 0.5	0.059	CC1(C)C(=O)N(CC(=O)NCCCC(=O)O)c2c(F)cc(C3CC3)c(F)c21 [Compound 57, 4-(2-(5-cyclopropyl-4,7-difluoro-3,3-dimethyl-2-oxoindolin-1-yl)acetamido)butanoic acid]
< 0.3	< 0.3	0.3 to 0.5		C[C@@H](CCC(=O)O)NC(=O)CN1C(=O)C(C)(C)c2c(F)c(C3CC3)cc(F)c21 [Compound 59A, (S)-4-(2-(5-cyclopropyl-4,7-difluoro-3,3-dimethyl-2-oxoindolin-1-yl)acetamido)pentanoic acid]
< 0.3	< 0.3	0.5 to 1		CC1(C)C(=O)N(CC(=O)NC[C@H](F)CC(=O)O)c2ccc(C3CC3)c(F)c21 [Compound 63A, (R)-4-(2-(5-cyclopropyl-4-fluoro-3,3-dimethyl-2-oxoindolin-1-yl)acetamido)-3-fluorobutanoic acid]
< 0.3	< 0.3	0.5 to 1		CC1(C)C(=O)N(CC(=O)NC[C@H](F)CC(=O)O)c2c(F)cc(C(F)(F)F)c(F)c21 [Compound 64A, (R)-4-(2-(4,7-difluoro-3,3-dimethyl-2-oxo-5-(trifluoromethyl)indolin-1-yl)acetamido)-3-fluorobutanoic acid]
< 0.3	< 0.3	0.5 to 1	0.015	CC1(C)C(=O)N(CC(=O)NCCCc2nnn[nH]2)c2c(F)cc(C3CC3)c(F)c21 [Compound 65, N-(3-(1H-tetrazol-5-yl)propyl)-2-(5-cyclopropyl-4,7-difluoro-3,3-dimethyl-2-oxoindolin-1-yl)acetamide]
< 0.3	< 0.3	< 0.3	0.024	CC1(C)C(=O)N(CC(=O)NCCCC(=O)O)c2c(F)cc(C3CC3)cc21 [Compound 66, 4-(2-(5-cyclopropyl-7-fluoro-3,3-dimethyl-2-oxoindolin-1-yl)acetamido)butanoic acid]
